Key:
[1] = biological target: T1, RAMP2-CLR (AM1 receptor) (Homo sapiens, UniProt O60895+Q16602); experiment: S. cerevisiae growth assay, GPA1/Gαs chimera, RAMP2 + CLR; assay type: cell-based; settings: percentage of yeast strain MMY11 (lacking GPA1); 20 h; mean ± S.E., n = 7
T1 construct: FLAG; expressed in transfected cells; host or cells: HEK-293 or HEK-293S cells, transient transfection, 1:1 RAMP:CLR
Procedure: FIGURE 1. […] Reporter gene activity was determined following 20 h of stimulation with each ligand. Data are expressed as a percentage of the maximum response observed in yeast strain MMY11 (lacking GPA1) and are means ± S.E. of n individual data sets. […] Data were determined as statistically different from the cognate ligand for each receptor (*, p < 0.05; **, p < 0.01; ***, p < 0.001) using a one-way ANOVA with Bonferroni's post-test.
General yeast procedures were performed as described previously ([22], [24]). The human CLR was introduced into yeast cells under the control of the PGK promoter using a plasmid containing ura3 (pDT-PGK). […] Receptor signaling was measured using the yeast growth assay as described previously ([24]). […] A fluorescein signal was detected as an increase in fluorescence (excitation wavelength = 485 nm, emission wavelength = 535 nm) as a measure of growth. Different concentrations of ligand (0.01 nM–100 μM) were assayed using 96-well plates, and fluorescence was detected using a Tecan Infinite M200 microplate reader (Tecan Ultra Evolution, Reading, UK) or a Mithras LB 940 microplate reader (Berthold Technologies, Harpenden, UK) for 20 h.
Data analysis for cAMP assays was performed in GraphPad Prism 6.0f (San Diego, CA). […] To quantitate the ligand-dependent response in the yeast system, a strain lacking GPA1 (MMY11), grown in rich medium, was used as a standard ([72]). […]

[2] = biological target: T1, RAMP2-CLR (AM1 receptor); experiment: S. cerevisiae growth assay, GPA1/Gαq chimera, RAMP2 + CLR; assay type: cell-based; settings: percentage of yeast strain MMY11 (lacking GPA1); 24-h; mean ± S.E., n = 6
Procedure: FIGURE 7. […] Reporter gene activity was determined following 24-h stimulation. All data are expressed as percentage of the maximum response observed in yeast strain MMY11 and are means ± S.E. of n individual data sets. D, Bar chart showing the efficacy of each ligand for each RAMP-CLR combination at the Gαq chimera determined via application of the operational model of receptor agonism (Ref. [34] and Table 1). Data were determined as statistically different from the cognate ligand for each receptor (***, p < 0.001; ****, p < 0.0001) using one-way ANOVA with Bonferroni's post-test. E, signaling bias plots were calculated as ΔΔ(τ/Ka) values on a logarithmic scale for each ligand and for each chimera G protein for the three individual RAMP-CLR complexes.
General yeast procedures were performed as described previously ([22], [24]). […] Receptor signaling was measured using the yeast growth assay as described previously ([24]). […] A fluorescein signal was detected as an increase in fluorescence (excitation wavelength = 485 nm, emission wavelength = 535 nm) as a measure of growth. Different concentrations of ligand (0.01 nM–100 μM) were assayed using 96-well plates, and fluorescence was detected using a Tecan Infinite M200 microplate reader (Tecan Ultra Evolution, Reading, UK) or a Mithras LB 940 microplate reader (Berthold Technologies, Harpenden, UK) for 20 h. […]

T1 sequence (Q16602 23-461): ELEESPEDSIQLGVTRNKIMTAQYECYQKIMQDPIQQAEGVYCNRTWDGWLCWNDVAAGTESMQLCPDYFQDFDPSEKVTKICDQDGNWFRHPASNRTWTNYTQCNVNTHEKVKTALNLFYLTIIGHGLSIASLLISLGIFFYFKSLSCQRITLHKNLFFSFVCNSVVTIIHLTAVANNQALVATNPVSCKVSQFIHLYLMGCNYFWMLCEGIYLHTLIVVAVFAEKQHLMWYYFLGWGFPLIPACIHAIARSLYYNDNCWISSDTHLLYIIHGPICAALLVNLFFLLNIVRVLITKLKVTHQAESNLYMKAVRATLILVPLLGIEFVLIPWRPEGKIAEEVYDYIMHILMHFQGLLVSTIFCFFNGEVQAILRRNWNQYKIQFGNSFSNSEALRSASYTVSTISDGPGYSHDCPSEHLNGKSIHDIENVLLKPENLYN
T1 sequence (O60895 43-175): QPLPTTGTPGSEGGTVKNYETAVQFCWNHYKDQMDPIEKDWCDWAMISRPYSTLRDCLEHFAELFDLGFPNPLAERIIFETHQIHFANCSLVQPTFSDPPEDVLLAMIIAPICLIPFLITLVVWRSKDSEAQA

## CSCC[C@H](NC(=O)[C@H](CC(C)C)NC(=O)[C@H](CCC(N)=O)NC(=O)[C@H](Cc1c[nH]c2ccccc12)NC(=O)[C@H](CC(C)C)NC(=O)[C@H](CCCNC(=N)N)NC(=O)[C@H](Cc1c[nH]cn1)NC(=O)[C@H](CO)NC(=O)[C@H](CC(C)C)NC(=O)[C@H](CC(N)=O)NC(=O)[C@H](CCC(N)=O)NC(=O)[C@@H](NC(=O)[C@H](CCC(N)=O)NC(=O)[C@@H]1CSSC[C@H](NC(=O)CNC(=O)[C@@H](NC(=O)[C@H](CCCNC(=N)N)NC(=O)[C@H](CC(C)C)NC(=O)[C@H](CC(C)C)NC(=O)[C@H](CCC(N)=O)NC(=O)[C@H](C)NC(=O)[C@H](CCC(N)=O)NC(=O)[C@@H](N)[C@@H](C)O)C(C)C)C(=O)N[C@@H](C(C)C)C(=O)N[C@@H](CC(C)C)C(=O)NCC(=O)N[C@@H]([C@@H](C)O)C(=O)N1)C(C)C)C(=O)NCC(=O)N1CCC[C@H]1C(=O)N[C@@H](C)C(=O)NCC(=O)N[C@@H](CCCNC(=N)N)C(=O)N[C@@H](CCC(N)=O)C(=O)N[C@@H](CC(=O)O)C(=O)N[C@@H](CO)C(=O)N[C@@H](C)C(=O)N1CCC[C@H]1C(=O)N[C@H](C(=O)N[C@@H](CC(=O)O)C(=O)N1CCC[C@H]1C(=O)N[C@@H](CO)C(=O)N[C@@H](CO)C(=O)N1CCC[C@H]1C(=O)N[C@@H](Cc1c[nH]cn1)C(=O)N[C@@H](CO)C(=O)N[C@@H](Cc1ccc(O)cc1)C(N)=O)C(C)C [AM2, adrenomedullin 2]
[1]
  Emax: 19.9 ± 2.5%
[2]
  Emax: 11.3 ± 1.3%
